# What was measured:
# [1] = tested on: hematopoietic system (5-FU toxicity); assay: TAU dose-response on hematopoietic recovery after 5-FU (Example 2); assay type: in vivo, female Balb/C mice; set-up: Marrow: unit not given here; details: for HCT (11d): eleven days after 5-FU
# Description: Seventy female Balb/C mice weighing approximately twenty grams were each given an i.p. injection of 5-FU (150 mg/kg) at 1:00 p.m. on the initial day of the study. These animals were then divided into five different treatment groups: control (water), and oral TAU at doses of 100, 250, 500, and 1,000 mg/kg/treatment. The test compounds were then given at 3:00, 5:00, 7:30, and 10:00 p.m. on the day of 5-FU administration; at 9:00 a.m., 11:00 a.m., and 1:00, 3:00, 6:00, and 10:00 p.m. the following day; and a final administration at 11:00 a.m. two days following the single 5-FU injection. Each treatment was given orally in a volume of 0.2 ml water (by gavage), except the highest dose of TAU which was administered in 0.4 ml of water.
# On days seven and eleven following 5-FU administration, blood (0.2–0.3 ml) was collected from seven mice in each group by retro-orbital bleeding into EDTA for subsequent differential blood cell counting. Mice were sacrificed by cervical dislocation; their right femurs removed and the contents expelled for cell counting; and their spleens removed and weighed.
# [2] = tested on: hematopoietic system (AZT toxicity); assay: Oral TAU vs hematopoietic damage by AZT in drinking water (Example 8); assay type: in vivo, Balb/C female mice
# Description: Forty-two Balb/C female mice, each weighing approximately 19 grams, were divided into three different groups of 14 animals each. The three groups were: basal (no AZT, no treatment), control (AZT, water), and TAU (AZT, TAU at 460 mg/kg/treatment). AZT was administered ad libitum in the drinking water at a concentration of 1.5 mg/ml throughout the course of the experiment. The volume of AZT solution consumed in all treatment groups was similar and averaged 2.25 ml per day per mouse, resulting in a daily AZT dose of about 170 mg/kg per day. Water and TAU were administered in a volume of 0.2 mL three times per day for the first 24 days of the study, and twice each day thereafter.
# All of the animals were weighed on the day the experiment began, once each week, and immediately prior to sacrifice. After weighing the mice on days 24 and 35, blood (0.2–0.3 ml) was collected from seven mice in each group by retro-orbital bleeding into EDTA for subsequent differential blood cell counting, including reticulocytes. Mice were then sacrificed by cervical dislocation; their right femurs removed and the contents expelled for cell counting; and their spleens removed and weighed.
# [3] = in vivo; set-up: species or system mice; details: mouse, ip, 300 mg/kg
# Description: Plasma uridine levels were determined in mice at various times (15 minutes, 30 minutes, 1 hour, and 2 hours) after administration of the acyl derivatives of uridine utilized in Example 3 for attenuation of toxicity caused by 5-FU. Groups of mice (n=3 per compound per time point) received intraperitoneal injections of uridine (300 mg/kg), triacetyluridine (TAU; 455 mg/kg/treatment), benzoyluridine (BU; 428 mg/kg/treatment), ethoxycarbonyluridine (ECU; 389 mg/kg/treatment), octanoyluridine (OU; 455 mg/kg/treatment), and valeryluridine (VU; 403 mg/kg/treatment). The doses of the acyl derivatives of uridine are the molar equivalent of 300 mg/kg uridine. At the appropriate time points, blood samples (200 μl) were taken from mice via the retro-orbital sinus and immediately centrifuged. 75 μl of the resulting plasma was deproteinized with 2 volumes of methanol followed by centrifugation. The supernatant was lyophilized and reconstituted with 50 mM potassium phosphate buffer, pH 6.0, and analyzed for uridine content by HPLC on a reverse phase (C18) column. Uridine was separated from other plasma components in 50 mM potassium phosphate buffer, pH 6.0, with a methanol gradient (2% to 35% over 15 minutes). Uridine was detected and quantified by UV absorbance at 260 nm.
# [4] = Plasma uridine after oral uridine or TAU, with or without dipyridamole (Example 12); assay type: in vivo, female Balb/C mice
# Description: Female Balb/C mice with a body weight of 20 grams were divided into four groups of 8 animals each: [table] Dipyridamole was administered by intraperitoneal injection 30 minutes prior to uridine or TAU Uridine was administered orally by gavage as an aqueous solution in a volume of 0.4 ml. TAU was administered by gavage in an emulsion vehicle (1:1 corn oil/water with 2.5% Tween 80). Two mice from each group were bled from the suborbital plexus at each time point: 0 (Basal uridine levels before TAU or uridine administration), 0.5, 1, 2, and 4 hours after administration of TAU or uridine Plasma samples (0.1 ml) were deproteinized by addition of 0.2 ml methanol followed by centrifugation. Samples were lyophilized and then reconstituted with HPLC buffer (100 mM ammonium acetate, pH 6.5, for subsequent assay of uridine by reverse phase HPLC with UV absorbance detection (254 nm). Data points are the mean of two samples for each time point.
# [5] = seven days after 5-FU, oral TAU 100 mg/kg/treatment
# [6] = seven days after 5-FU, oral TAU 250 mg/kg/treatment
# [7] = seven days after 5-FU, oral TAU 500 mg/kg/treatment
# [8] = seven days after 5-FU, oral TAU 1000 mg/kg/treatment
# [9] = day 24, AZT in drinking water + oral TAU 460 mg/kg/treatment
# [10] = day 35, AZT in drinking water + oral TAU 460 mg/kg/treatment
structure (smiles),measurement,setting,value
"CC(=O)OC[C@H]1O[C@@H](n2ccc(=O)[nH]c2=O)[C@H](OC(C)=O)[C@@H]1OC(C)=O [TAU, triacetyluridine]",Total neutrophil counts vs control,"[1]; day eleven after 5-FU, TAU 250, 500, and 1,000 groups",significantly greater than control values
same,Spleen weight,"[1]; day eleven after 5-FU, TAU 250 group",104.2 ± 3.5 mg
same,Red blood cell counts,"[1]; day eleven after 5-FU, TAU 500 group",8.72±0.18 ×10^6 per microliter
same,Red blood cell counts,"[1]; day eleven after 5-FU, TAU 1000 group",8.63±0.16 ×10^6 per microliter
same,"Total neutrophil counts, fold of controls","[1]; day seven after 5-FU, TAU 1,000 group",approximately three-fold
same,HCT (11d),[1]; T100,36.80
same,HCT (11d),[1]; T250,37.47 ± .83
same,HCT (11d),[1]; T500,41.16 ± .88
same,HCT (11d),[1]; T1000,41.55 ± .77
same,Marrow,"[1]; seven days after 5-FU 150 mg/kg i.p., oral TAU 100 mg/kg/treatment",1.77 ± .18
same,HCT (7d),"[1]; seven days after 5-FU, T100",37.77
same,HCT (7d),"[1]; seven days after 5-FU, T250",40.04 ± .38
same,HCT (7d),"[1]; seven days after 5-FU, T500",39.50 ± .61
same,HCT (7d),"[1]; seven days after 5-FU, T1000",40.84 ± .68
same,Lym,[1]; [5],2.46 ± .04 K/μl
same,Neut,[1]; [5],.014 ± .008 K/μl
same,PLT,[1]; [5],440 ± 46 K/μl
same,RBC,[1]; [5],8.20 ± .07 M/μl
same,WBC,[1]; [5],2.47 ± .04 K/μl
same,Lym,[1]; [6],2.71 ± .20 K/μl
same,Marrow,[1]; [6],2.91 ± .48
same,Neut,[1]; [6],.027 ± .012 K/μl
same,PLT,[1]; [6],601 ± 46 K/μl
same,RBC,[1]; [6],8.51 ± .06 M/μl
same,WBC,[1]; [6],2.76 ± .20 K/μl
same,Lym,[1]; [7],3.99 ± .15 K/μl
same,Marrow,[1]; [7],3.93 ± .39
same,Neut,[1]; [7],.037 ± .020 K/μl
same,PLT,[1]; [7],712 ± 42 K/μl
same,RBC,[1]; [7],8.43 ± .16 M/μl
same,WBC,[1]; [7],4.06 ± .14 K/μl
same,Lym,[1]; [8],3.44 ± .23 K/μl
same,Marrow,[1]; [8],4.42 ± .34
same,Neut,[1]; [8],.071 ± .027 K/μl
same,PLT,[1]; [8],715 ± 35 K/μl
same,RBC,[1]; [8],8.65 ± .15 M/μl
same,WBC,[1]; [8],3.57 ± .25 K/μl
same,Body weights,"[2]; day 7, AZT […] in drinking water + oral TAU 460 mg/kg/treatment",19.51±0.38 grams
same,RBC counts,[2]; [9],9.01±0.09
same,Total neutrophil counts,[2]; [9],0.91±0.06
same,HCT,[2]; [10],41.26 ± .62 percentage
same,HGB,[2]; [10],15.14 ± .12 gm/dl
same,MCH (mean cell hematocrit),[2]; [10],18.49 ± .28 picograms
same,MCV,[2]; [10],50.41 ± .48 fL
same,PLT,[2]; [10],809 ± 06 K/μl
same,RBC,[2]; [10],8.20 ± .20 M/μl
same,reticulocyte levels,[2]; [10],0.371 ×10^6 per microliter
"O=c1ccn([C@@H]2O[C@H](CO)[C@@H](O)[C@H]2O)c(=O)[nH]1 [Urd, uridine]",concentration at 15 min,[3],911 µM
same,concentration at 30 min,[3],415 µM
same,concentration at 1 h,[3],185 µM
same,concentration at 2 h,[3],5.3 µM
same,concentration at 0 h,"[4]; female, Balb/C, mouse, plasma, oral, 1000 mg/kg, 0 hr (basal, before TAU or uridine), DPM 25 mg/kg i.p. 30 min before where given, read-out: Plasma uridine levels",2 µM
same,concentration at 0.5 h,"[4]; female, Balb/C, mouse, plasma, oral, 0.5 hr after uridine 1000 mg/kg p.o. or equimolar TAU 1500 mg/kg p.o., ± DPM 25 mg/kg i.p., read-out: Plasma uridine levels",4 µM
same,concentration at 1 h,"[4]; female, Balb/C, mouse, plasma, oral, 1 hr after uridine 1000 mg/kg p.o. or equimolar TAU 1500 mg/kg p.o., ± DPM 25 mg/kg i.p., read-out: Plasma uridine levels",6 µM
same,concentration at 2 h,"[4]; female, Balb/C, mouse, plasma, oral, 2 hr after uridine 1000 mg/kg p.o. or equimolar TAU 1500 mg/kg p.o., ± DPM 25 mg/kg i.p., read-out: Plasma uridine levels",4 µM
same,concentration at 4 h,"[4]; female, Balb/C, mouse, plasma, oral, 4 hr after uridine 1000 mg/kg p.o. or equimolar TAU 1500 mg/kg p.o., ± DPM 25 mg/kg i.p., read-out: Plasma uridine levels",2 µM
same,peak plasma uridine levels,"[4]; uridine 1000 mg/kg p.o. or equimolar TAU 1500 mg/kg p.o., ± DPM 25 mg/kg i.p.",6 µM
